In the supplement of paper PMC10307832:

Key:
Assay in all cases: relative viability (nuclei count vs DMSO), 5 days (fraction); higher = more cells survive
[1] = compound: C1=CC(=CC=C1C2=CC(=C(S2)NC(=O)N)C(=O)N)F [TPCA-1] + COc1cccc2cc(-c3nc([C@H]4CC[C@H](C(=O)O)CC4)n4ncnc(N)c34)[nH]c12 [OSI-027] (partner 0.5 µM)
How it was run: (§1)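 Values are medians from duplicate plates. Each reflects relative viability, defined as the nuclei count of treated wells over that of vehicle wells. Lung cancer cell lines in 1536-well plates were pin-tool dosed one day after seeding with one drug alone or with a fixed anchor-drug dose plus five library-drug doses (not always all listed) in √10 steps, then fixed, stained and imaged at 4× after 5 days.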

[2] = compound: C1=CC(=CC=C1C2=CC(=C(S2)NC(=O)N)C(=O)N)F [TPCA-1] + Nc1nc2[nH]cc(CCc3ccc(C(=O)N[C@@H](CCC(=O)O)C(=O)O)cc3)c2c(=O)[nH]1 [Pemetrexed] (partner 0.2 µM)
How it was run: as §1

[3] = compound: C1/C(=C\C2=CC=CS2)/C(=O)/C(=C/C3=CC=CS3)/C1 + Cc1nc(NC(=O)N2CCC[C@H]2C(N)=O)sc1-c1ccnc(C(C)(C)C(F)(F)F)c1 [Alpelisib] (partner 2 µM)
How it was run: as §1

[4] = compound: C1/C(=C\C2=CC=CS2)/C(=O)/C(=C/C3=CC=CS3)/C1 + Cc1nc(Nc2ncc(C(=O)Nc3c(C)cccc3Cl)s2)cc(N2CCN(CCO)CC2)n1 [Dasatinib] (partner 0.075 µM)
How it was run: as §1

Cell Line	relative viability ([1]; first compound 0.04 µM)	relative viability ([1]; first compound 0.1265 µM)	relative viability ([1]; first compound 0.4 µM)	relative viability ([1]; first compound 1.265 µM)	relative viability ([1]; first compound 4 µM)	relative viability ([2]; first compound 0.04 µM)	relative viability ([2]; first compound 0.4 µM)	relative viability ([2]; first compound 1.265 µM)	relative viability ([2]; first compound 4 µM)	relative viability ([3]; first compound 0.2 µM)	relative viability ([3]; first compound 0.6325 µM)	relative viability ([3]; first compound 2 µM)	relative viability ([3]; first compound 6.325 µM)	relative viability ([3]; first compound 20 µM)	relative viability ([4]; first compound 0.2 µM)	relative viability ([4]; first compound 0.6325 µM)	relative viability ([4]; first compound 2 µM)	relative viability ([4]; first compound 20 µM)	relative viability ([2]; first compound 0.1265 µM)	relative viability ([4]; first compound 6.325 µM)
EKVX	0.806	0.671	0.771	0.626	0.586	0.43	0.343	0.329	0.375	0.878	0.85	0.992	0.626	0.855	0.556	0.433	0.519	0.459	–	–
NCI-H1651	0.756	0.612	0.648	0.741	0.544	0.601	0.532	0.527	0.338	1.11	0.899	1.03	–	0.975	0.435	0.504	0.417	0.401	0.538	0.425
HCC-15	0.831	0.492	0.677	0.504	0.262	0.222	0.224	0.238	0.22	0.926	0.934	0.823	0.845	0.871	0.692	0.61	0.65	0.586	0.227	0.489
LCLC-103H	0.458	0.44	0.485	0.443	0.387	0.522	0.464	0.398	0.432	1.05	0.926	1.02	0.73	0.956	0.402	0.466	0.572	0.444	0.426	0.481
NCI-H23	0.599	0.574	0.514	0.429	0.149	0.614	0.72	0.61	0.235	0.705	0.899	0.706	0.483	0.742	0.742	0.832	1.07	0.692	0.668	0.804
NCI-H1792	0.701	0.653	0.696	0.618	0.564	1.24	0.764	0.672	0.222	0.803	0.763	0.711	–	0.697	0.774	0.613	0.968	0.752	0.721	0.758
NCI-H596	0.717	0.584	0.678	0.787	0.389	0.53	0.532	0.509	0.412	0.56	0.467	0.522	0.467	0.389	0.577	0.677	0.598	0.586	0.516	0.628
NCI-H1563	0.784	0.766	0.827	0.712	0.688	0.799	0.788	0.642	0.599	0.933	0.912	0.881	0.93	1.02	0.452	0.462	0.504	0.465	0.508	0.453
NCI-H460	0.794	0.642	0.631	0.584	0.137	0.0613	–	0.0518	0.0585	0.491	0.576	0.601	–	0.463	0.562	0.526	0.6	0.484	0.0689	0.461
HCC-366	1.07	0.8	0.914	0.52	0.0324	–	0.155	0.116	0.145	0.502	0.393	0.378	0.345	0.421	0.638	0.592	0.751	0.474	0.17	0.608
NCI-H2085	0.978	0.689	0.731	0.462	0.354	–	0.918	0.872	0.634	1.22	1.02	1.04	0.785	0.97	0.233	0.258	0.221	0.236	0.864	0.237
PC-14	0.954	0.717	0.951	0.593	0.341	0.136	0.133	0.134	0.138	0.95	0.898	0.889	0.676	0.995	0.32	0.264	0.285	0.222	0.128	0.241
HOP-62	0.872	0.748	0.96	0.574	0.716	0.269	0.299	0.271	0.216	1.01	0.741	1.09	0.764	0.93	0.678	0.683	0.729	0.61	0.346	0.651
NCI-H2087	0.554	0.444	0.537	0.414	0.207	0.615	0.646	0.651	0.539	1.24	1.14	1.04	0.917	1.11	0.942	0.879	1.03	0.878	0.472	0.655
NCI-H1793	0.233	–	0.275	0.285	0.139	0.97	0.921	0.963	0.249	0.64	0.656	0.763	0.696	0.559	0.381	0.441	0.472	0.37	0.709	0.341
PC-3 [JPC-3]	0.83	0.702	0.73	0.654	0.615	1.17	1.22	1.09	0.535	0.994	0.995	0.998	0.97	1.05	1.03	0.981	1.04	0.948	1.03	0.856
